Laboratory results: US8211654B2, “High-throughput assay for sugar-mediated drug transport” (Wisconsin Alumni Research Foundation, priority 2008, dated 2012)

What was measured:
[1] = biological target: T1, GLUT7 (Homo sapiens, UniProt Q6PXP3); details: literature; cited from earlier work
T1 construct: host or cells: Xenopus oocytes mainly; also COS-7, CHO, yeast variants (not tied to single values)
T1 sequence (Q6PXP3 1-512): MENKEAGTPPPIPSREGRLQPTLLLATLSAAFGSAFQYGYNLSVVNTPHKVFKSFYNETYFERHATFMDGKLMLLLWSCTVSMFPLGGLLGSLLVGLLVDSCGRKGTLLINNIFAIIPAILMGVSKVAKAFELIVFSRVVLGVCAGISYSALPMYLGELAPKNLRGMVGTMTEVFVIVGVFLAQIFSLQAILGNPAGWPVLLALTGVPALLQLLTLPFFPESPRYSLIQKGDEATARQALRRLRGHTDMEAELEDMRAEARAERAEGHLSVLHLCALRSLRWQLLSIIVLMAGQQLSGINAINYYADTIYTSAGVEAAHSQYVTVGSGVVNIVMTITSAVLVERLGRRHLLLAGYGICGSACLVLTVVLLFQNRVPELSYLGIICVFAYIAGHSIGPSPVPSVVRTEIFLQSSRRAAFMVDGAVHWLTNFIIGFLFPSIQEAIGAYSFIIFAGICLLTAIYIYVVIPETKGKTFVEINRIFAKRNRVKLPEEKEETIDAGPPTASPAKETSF

[2] = biological target: T2, GLUT3 (Homo sapiens, UniProt P11169); details: literature; cited from earlier work
T2 construct: host or cells: Xenopus oocytes mainly; also COS-7, CHO, yeast variants (not tied to single values)
T2 sequence (P11169 1-496): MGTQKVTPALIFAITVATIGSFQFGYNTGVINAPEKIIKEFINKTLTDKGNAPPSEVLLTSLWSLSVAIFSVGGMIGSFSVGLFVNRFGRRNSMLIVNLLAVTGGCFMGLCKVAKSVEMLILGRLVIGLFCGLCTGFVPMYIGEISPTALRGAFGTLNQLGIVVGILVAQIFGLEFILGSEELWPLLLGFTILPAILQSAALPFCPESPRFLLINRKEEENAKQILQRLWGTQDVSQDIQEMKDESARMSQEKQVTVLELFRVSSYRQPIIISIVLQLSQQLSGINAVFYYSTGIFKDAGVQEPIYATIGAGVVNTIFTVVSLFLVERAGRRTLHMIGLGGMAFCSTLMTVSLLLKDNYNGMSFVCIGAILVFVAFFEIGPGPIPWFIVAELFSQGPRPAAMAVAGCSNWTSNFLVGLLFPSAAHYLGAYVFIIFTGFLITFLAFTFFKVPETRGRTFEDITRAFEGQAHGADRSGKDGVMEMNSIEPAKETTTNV

[3] = biological target: T3, GLUT9 (Homo sapiens, UniProt Q9NRM0); details: literature; cited from earlier work
T3 construct: host or cells: Xenopus oocytes mainly; also COS-7, CHO, yeast variants (not tied to single values)
T3 sequence (Q9NRM0 1-540): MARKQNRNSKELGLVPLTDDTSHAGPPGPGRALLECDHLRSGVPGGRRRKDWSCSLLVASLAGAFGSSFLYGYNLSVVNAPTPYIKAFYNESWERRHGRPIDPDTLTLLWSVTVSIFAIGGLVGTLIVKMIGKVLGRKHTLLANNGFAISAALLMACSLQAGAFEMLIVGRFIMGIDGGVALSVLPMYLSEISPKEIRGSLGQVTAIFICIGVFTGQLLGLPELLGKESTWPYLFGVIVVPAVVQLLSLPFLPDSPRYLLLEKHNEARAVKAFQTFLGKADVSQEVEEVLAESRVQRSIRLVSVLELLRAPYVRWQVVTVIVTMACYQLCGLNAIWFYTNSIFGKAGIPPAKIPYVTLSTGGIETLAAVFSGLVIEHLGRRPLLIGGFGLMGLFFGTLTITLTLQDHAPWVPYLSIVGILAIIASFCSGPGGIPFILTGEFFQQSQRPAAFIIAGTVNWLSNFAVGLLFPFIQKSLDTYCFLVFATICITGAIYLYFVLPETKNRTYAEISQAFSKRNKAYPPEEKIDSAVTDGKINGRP

[4] = biological target: T4, GLUT11 (Homo sapiens, UniProt Q9BYW1); details: literature; cited from earlier work
T4 construct: host or cells: Xenopus oocytes mainly; also COS-7, CHO, yeast variants (not tied to single values)
T4 sequence (Q9BYW1 1-496): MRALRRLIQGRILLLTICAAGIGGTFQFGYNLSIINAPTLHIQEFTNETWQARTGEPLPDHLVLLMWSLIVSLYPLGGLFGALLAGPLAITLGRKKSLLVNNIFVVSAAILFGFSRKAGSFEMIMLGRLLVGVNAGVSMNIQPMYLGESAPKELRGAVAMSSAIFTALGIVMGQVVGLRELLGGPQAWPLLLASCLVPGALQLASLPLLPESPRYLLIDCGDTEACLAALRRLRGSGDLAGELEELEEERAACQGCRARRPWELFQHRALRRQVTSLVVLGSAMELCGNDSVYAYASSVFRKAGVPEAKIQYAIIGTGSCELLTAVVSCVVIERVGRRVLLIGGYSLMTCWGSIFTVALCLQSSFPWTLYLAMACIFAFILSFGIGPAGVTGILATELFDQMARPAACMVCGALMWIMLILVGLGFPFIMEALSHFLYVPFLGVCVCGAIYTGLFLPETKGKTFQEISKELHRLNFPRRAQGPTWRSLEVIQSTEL

[5] = biological target: T5, GLUT5 (Homo sapiens, UniProt P22732); details: literature; cited from earlier work
T5 construct: host or cells: Xenopus oocytes mainly; also COS-7, CHO, yeast variants (not tied to single values)
T5 sequence (P22732 1-501): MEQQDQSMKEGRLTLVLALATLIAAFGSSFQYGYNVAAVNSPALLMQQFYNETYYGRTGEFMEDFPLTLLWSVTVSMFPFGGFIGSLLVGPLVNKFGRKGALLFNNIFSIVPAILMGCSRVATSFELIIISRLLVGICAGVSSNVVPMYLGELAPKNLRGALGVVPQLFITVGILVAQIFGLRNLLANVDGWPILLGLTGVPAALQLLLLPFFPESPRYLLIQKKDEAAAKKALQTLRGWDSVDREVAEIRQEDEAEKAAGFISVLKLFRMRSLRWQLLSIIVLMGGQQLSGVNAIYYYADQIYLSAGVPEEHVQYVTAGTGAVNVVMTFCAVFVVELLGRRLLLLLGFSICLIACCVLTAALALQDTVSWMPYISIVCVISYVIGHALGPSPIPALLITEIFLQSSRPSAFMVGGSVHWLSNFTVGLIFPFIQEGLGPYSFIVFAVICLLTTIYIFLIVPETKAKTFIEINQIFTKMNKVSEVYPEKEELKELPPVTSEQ

[6] = biological target: T6, GLUT2 (Homo sapiens, UniProt P11168); details: literature; cited from earlier work
T6 construct: host or cells: Xenopus oocytes mainly; also COS-7, CHO, yeast variants (not tied to single values)
T6 sequence (P11168 1-524): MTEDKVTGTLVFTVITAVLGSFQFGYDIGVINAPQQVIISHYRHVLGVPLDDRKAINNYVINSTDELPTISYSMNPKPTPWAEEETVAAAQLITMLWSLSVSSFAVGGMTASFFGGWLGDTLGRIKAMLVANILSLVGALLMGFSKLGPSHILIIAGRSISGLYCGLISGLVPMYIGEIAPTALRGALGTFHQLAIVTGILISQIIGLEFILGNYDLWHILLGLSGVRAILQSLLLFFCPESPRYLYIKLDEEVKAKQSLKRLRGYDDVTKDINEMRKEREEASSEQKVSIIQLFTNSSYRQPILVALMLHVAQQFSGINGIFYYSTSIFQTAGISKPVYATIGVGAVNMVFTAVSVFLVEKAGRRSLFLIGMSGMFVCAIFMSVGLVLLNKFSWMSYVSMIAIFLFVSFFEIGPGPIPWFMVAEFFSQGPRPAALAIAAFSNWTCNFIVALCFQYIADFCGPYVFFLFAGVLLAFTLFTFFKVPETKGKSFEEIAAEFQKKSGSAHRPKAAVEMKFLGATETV

[7] = compared with the parent ifosfamide; cited from earlier work
[8] = tested on: MCF10A (immortalized breast), MCF7 (breast cancer), A549 (non-small cell lung cancer), Du145 (prostrate cancer), RWPE (immortalized prostrate); experiment: Sugar transporter assay: uptake of sugar-fluorophore conjugates by intracellular fluorescence, normalized to cell number; type: cell-based; details: 1 hour incubation; dose range 250-0 μM; five cell lines; compared with D-glucose conjugate
Experimental: FIG. 5. Representative sugar transporter assays. […] For each cell line, the dose range was 250 μM, 125 μM, 62.5 μM, 31.3 μM, 15.6 μM, 7.8 μM, 3.9 μM and 0 μM. The average error (40 compounds, 5 cell lines) was 8.3%.
For the sugar transporter assay of the present invention, cells were plated at a density of 30,000 cells/ml (100 μL/well) in a 96-well clear bottom microtiter plates. Cells were allowed to attach overnight, and then incubated in glucose-free medium for an additional 24 hours. Compounds were added (from 96-well compound stock plates at a 1:100 dilution) using a Biomek FX liquid handler equipped with a 96 channel head. The plates were incubated for 1 hour and then the compound solution was removed by gentle aspiration. The cells were subsequently washed (1×100 μL) with phosphate buffered saline to remove residual fluorescent dye.
Sugar-conjugate uptake was assessed via intracellular fluorescence (FIG. 4b-4f) as determined using a Safire2™ multi-mode microplate reader (δex=485 nm, δem=535 nm) and normalized to cell number by a subsequent CellTiter-Glo® luminescent cell viability assay. […] The CellTiter-Glo® luminescent cell viability assay was analyzed on a Safire2™ multi-mode microplate reader for luminescence at 1 second per well. As an initial preliminary study, the transport assay with a representative set of probes was also analyzed using microscopy (FIG. 6).

Compound: O=CC[C@@H](O)[C@H](O)[C@H](O)CO [2-deoxyglucose]
- transport by GLUT7 [1]: does not transport
- affinity for GLUT3 [2]: approximately 1.5 mM
- transport by GLUT9 [3]: transport

Compound: O=C(CO)[C@@H](O)[C@H](O)[C@H](O)CO [fructose]
- transport by GLUT11 [4]: provides for transport
- affinity for GLUT5 [5]: approximately 1 mM

Compound: O=C[C@H](O)[C@@H](O)[C@@H](O)[C@H](O)CO [galactose]
- transport by GLUT11 [4]: not galactose
- transport by GLUT7 [1]: does not transport

Compound: N[C@H]1C(O)O[C@H](CO)[C@@H](O)[C@@H]1O (stereo partly drawn) [glucosamine]
- affinity for GLUT2 [6]: approximately 1 mM

Compound: O=P(NCCCl)(NCCCl)O[C@@H]1O[C@H](CO)[C@@H](O)[C@H](O)[C@H]1O [glufosfamide]
- antitumor activity [7]: higher antitumor activity
- myelotoxicity [7]: lower myelotoxicity

Compound: O=C[C@H](O)[C@@H](O)[C@H](O)CO [xylose]
- transport by GLUT7 [1]: does not transport

Compound: aminofluoroscein [parent 11]
- sugar-conjugate uptake (intracellular fluorescence normalized to cell number) [8]: No uptake
